The values that follow come from patent publication US8673894B2 (Hoffmann-La Roche Inc., priority 2010, dated 2014).

Where a name gives a salt, the structure may show the parent alone.

In test [1] the target is T1, endogenous cellular BACE2 (Rattus norvegicus, UniProt Q6IE75).
T1 construct: endogenous cellular BACE2 in the Ins1e rat cell line; endogenous in cells; host or cells: INS-TMEM27 (INS1e-derived rat insulinoma cell line with doxycycline-inducible full-length human TMEM27)
T1 sequence (Q6IE75 63-514): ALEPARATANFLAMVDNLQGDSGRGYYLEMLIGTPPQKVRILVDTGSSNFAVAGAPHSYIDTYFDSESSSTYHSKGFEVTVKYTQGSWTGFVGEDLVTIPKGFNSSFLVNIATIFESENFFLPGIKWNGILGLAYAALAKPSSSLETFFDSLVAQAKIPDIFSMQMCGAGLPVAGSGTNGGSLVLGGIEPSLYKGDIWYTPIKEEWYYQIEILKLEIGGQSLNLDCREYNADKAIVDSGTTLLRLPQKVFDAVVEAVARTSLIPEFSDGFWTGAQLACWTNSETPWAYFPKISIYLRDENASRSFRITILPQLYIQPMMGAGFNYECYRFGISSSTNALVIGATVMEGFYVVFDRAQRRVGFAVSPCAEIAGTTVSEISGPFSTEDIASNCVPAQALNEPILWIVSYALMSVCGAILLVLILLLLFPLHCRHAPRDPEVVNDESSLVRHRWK
The test can be described thus: Assay for BACE inhibition by measuring cellular TMEM27 cleavage. Format: cell-based. The conditions noted are these: INS-TMEM27 (INS1e-derived) cells, shed human TMEM27 in supernatant by ELISA. The source says:
Assay for BACE Inhibition by Measuring Cellular TMEM27 Cleavage:
The assay uses the principle of inhibition of human TMEM27 cleavage by endogenous cellular BACE2 in the Ins1e rat cell line and shedding from the cell surface into the culture medium, followed by detection in an ELISA assay. Inhibition of BACE2 prevents the cleavage and shedding in a dose-dependent manner.
The stable cell line “INS-TMEM27” represents an INS1e-derived cell line with inducible expression (using the TetOn system) of full-length hTMEM27 in a doxycycline-dependent manner. The cells are cultured throughout the experiment in RPMI1640+ Glutamax (Invitrogen) Penicillin/Streptomycin, 10% Fetal bovine serum, […], […], 100 micrograms/ml G418 and 100 microgram/ml hygromycin and are grown inadherent culture at 37° C. in a standard CO2 cell culture incubator.
INS-TMEM27 cells are seeded in 96-well plates. After 2 days in culture, BACE2 inhibitor is added in a range of concentrations as required by the assay and after a further two hours, doxycycline is added to a final concentration of 500 ng/ml. The cells are incubated for a further 46 hours and the supernatant harvested for detection of shed TMEM27.
An ELISA assay (using a pair of mouse anti-human-TMEM27 antibodies, raised against the extracellular domain of TMEM27) is used for detection of TMEM27 in the culture medium. An EC50 for BACE2 inhibition is calculated using the ELISA readout for each inhibitor concentration with standard curve-fitting software such as XLFit for the Excel spreadsheet program.
Background: In an ELISA, binding on a coated surface is turned into a signal by an enzyme label.

Test [2] has as its system Aβ40. The test can be described thus: Cellular Aβ-lowering assay. Format: cell-based. The conditions noted are these: HEK293 cells stably expressing human APP695, Aβ40 in supernatant by ELISA after 18-20 hrs; read-out: Cellular assay Abeta40 IC50. How it is done: Cellular Aβ-Lowering Assay:
Human HEK293 cells which are stably transfected with a vector expressing a cDNA of the human APP wt gene (APP695) were used to assess the potency of the compounds in a cellular assay. The cells were seeded in 96-well microtiter plates in cell culture medium (Iscove, plus 10% (v/v) fetal bovine serum, glutamine, penicillin/streptomycin) to about 80% confluence and the compounds were added at a 10× concentration in 1/10 volume of medium without FCS containing 8% DMSO (final concentration of DMSO was kept at 0.8% v/v). After 18-20 hrs incubation at 37° C. and 5% CO2 in a humidified incubator the culture supernatant was harvested for the determination of Aβ40 concentrations. 96well ELISA plates (e.g., Nunc MaxiSorb) were coated with monoclonal antibody which specifically recognize the C-terminal end of Aβ40 (Brockhaus et al., NeuroReport 9, 1481-1486; 1998). After blocking of non-specific binding sites with e.g. 1% BSA and washing, the culture supernatants were added in suitable dilutions together with a horseradish peroxidase-coupled Aβ detection antibody (e.g., antibody 4G8, Senetek, Maryland Heights, Mo.) and incubated for 5 to 7 hrs. Subsequently the wells of the microtiter plate were washed extensively with Tris-buffered saline containing 0.05% Tween 20 and the assay was developed with tetramethylbenzidine/H2O2 in citric acid buffer. After stopping the reaction with one volume 1 N H2SO4 the reaction was measured in an ELISA reader at 450 nm wavelength. The concentrations of Aβ in the culture supernatants were calculated from a standard curve obtained with known amounts of pure Aβ peptide.

Take `NC1=N[C@@]2(c3cc(NC(=O)c4ccc(OCC(F)(F)F)cn4)ccc3F)C[C@H]2COC1` (racemic) [Example 2, 5-(2,2,2-Trifluoro-ethoxy)-pyridine-2-carboxylic acid [3-((1SR,7RS)-3-amino-5-oxa-2-aza-bicyclo[5.1.0]oct-2-en-1-yl)-4-fluoro-phenyl]-amide]: the concentration for half-maximal inhibition (IC50) in test [1] is above 10000 nM; in test [2], 2200 nM.

As for `NC1=N[C@@]2(c3cccc(NC(=O)c4ccc(Cl)cn4)c3)C[C@H]2COC1` (racemic) [Example 3, 5-Chloro-pyridine-2-carboxylic acid [3-((1SR,7RS)-3-amino-5-oxa-2-aza-bicyclo[5.1.0]oct-2-en-1-yl)-phenyl]-amide], the IC50 in test [1] stood at 245 nM; in test [2], 34 nM.

`NC1=N[C@@]2(c3cccc(NC(=O)c4ccc(OCC(F)(F)F)cn4)c3)C[C@H]2COC1` (racemic) [Example 4, 5-(2,2,2-Trifluoro-ethoxy)-pyridine-2-carboxylic acid [3-((1SR,7RS)-3-amino-5-oxa-2-aza-bicyclo[5.1.0]oct-2-en-1-yl)-phenyl]-amide]: the IC50 in test [1] was 8900 nM; in test [2], 630 nM.

On to `NC1=N[C@@]2(c3cccc(NC(=O)c4ncc(C(F)(F)F)cc4Cl)c3)C[C@H]2COC1` (stereo in doubt) [Example 51, 3-Chloro-5-trifluoromethyl-pyridine-2-carboxylic acid [3-((R)-3-amino-5-oxa-2-aza-bicyclo[5.1.0]oct-2-en-1-yl)-phenyl]-amide; salt with trifluoroacetic acid], for which the values for the IC50 in test [1] and in test [2] were 8590 nM and 100 nM, respectively.

Regarding `C[C@@]1(c2cc(NC(=O)c3ccc(Cl)cn3)ccc2F)CCOCC(N)=N1` [Example 5, 5-Chloro-pyridine-2-carboxylic acid [3-((S)-3-amino-5-methyl-2,5,6,7-tetrahydro-[1,4]oxazepin-5-yl)-4-fluoro-phenyl]-amide formate], the figures for the half-maximal inhibitory concentration (IC50) in test [1] and in test [2] were 0.885 nM and 0.9 nM, respectively.

Turning to `C[C@@]1(c2cc(NC(=O)c3ncccc3F)ccc2F)CCOCC(N)=N1` [Example 6, 3-Fluoro-pyridine-2-carboxylic acid [3-((S)-3-amino-5-methyl-2,5,6,7-tetrahydro-[1,4]oxazepin-5-yl)-4-fluoro-phenyl]-amide formate], the IC50 in test [1] amounted to 3.6 nM; in test [2], 36 nM.

For `C[C@@]1(c2cc(NC(=O)c3ccccn3)ccc2F)CCOCC(N)=N1` [Example 7, Pyridine-2-carboxylic acid [3-((S)-3-amino-5-methyl-2,5,6,7-tetrahydro-[1,4]oxazepin-5-yl)-4-fluoro-phenyl]-amide], the IC50 was 1.45 nM in test [1] and 16 nM in test [2].

Consider `C[C@@]1(c2cc(NC(=O)c3ncc(Cl)cc3Cl)ccc2F)CCOCC(N)=N1` [Example 8, 3,5-Dichloro-pyridine-2-carboxylic acid [3-((S)-3-amino-5-methyl-2,5,6,7-tetrahydro-[1,4]oxazepin-5-yl)-4-fluoro-phenyl]-amide], for which the IC50 in test [1] was found to be 1.8 nM; in test [2] it was 2.5 nM.

In the case of `C[C@@]1(c2cc(NC(=O)c3ccc(F)cn3)ccc2F)CCOCC(N)=N1` [Example 9], the IC50 in test [1] worked out at 10 nM; in test [2], 1.6 nM.

For the molecule `CC1(C)C[C@@](C)(c2cc(NC(=O)c3ccc(Cl)cn3)ccc2F)N=C(N)CO1` [Example 10, 5-Chloro-pyridine-2-carboxylic acid [3-((S)-3-amino-5,7,7-trimethyl-2,5,6,7-tetrahydro-[1,4]oxazepin-5-yl)-4-fluoro-phenyl]-amide], the values for the IC50 in test [1] and in test [2] were 1.6 nM and 1.1 nM, respectively.

As to `C[C@]1(c2cc(NC(=O)c3ccc(Cl)cn3)ccc2F)N=C(N)COCC1(F)F` [Example 26, (R)-N-(3-(3-amino-6,6-difluoro-5-methyl-2,5,6,7-tetrahydro-1,4-oxazepin-5-yl)-4-fluorophenyl)-5-chloropicolinamide], the IC50 in test [2] was 1.3 nM.

For the molecule `C[C@@]1(c2cc(NC(=O)c3ccc(Cl)cn3)ccc2F)C[C@@H](c2ccccc2)OCC(N)=N1` [Example 69], the IC50 in test [2] stood at 5070 nM.

The term IC50 denotes the concentration needed to halve the response being measured.
